Laboratory results as given in ChEMBL document CHEMBL1121909, “Alkylating angiotensin II analogues: synthesis, analysis, and biological activity of angiotensin II analogues containing the nitrogen mustard melphalan in position 8” (J Med Chem, 1981).
Where a SMILES comes first, the peptide text is derived from it. [ ]: non-standard residue; d: D form. Phe(4-N(CH2CH2Cl)2) = N[C@@H](Cc1ccc(N(CCCl)CCCl)cc1)C(=O)O

Experiments:
[1] = species: Rattus norvegicus; assay: Antagonism against angiotensin II induced contraction in Rat uterine preparation; format: functional; settings: read-out: pA2 (converted)
[2] = system: Rattus norvegicus; assay: The compound was tested in vivo for pressor activity in Rat uterine preparation; format: functional

| SMILES | Kb [1] | Activity [2] |
| --- | --- | --- |
| CC[C@H](C)[C@H](NC(=O)[C@H](Cc1ccc(O)cc1)NC(=O)[C@@H](NC(=O)[C@H](CCCN=C(N)N)NC(=O)[C@H](CC(N)=O)NC(C)=O)C(C)C)C(=O)N[C@@H](Cc1c[nH]cn1)C(=O)N1CCC[C@H]1C(=O)N[C@@H](Cc1ccc(N(CCCl)CCCl)cc1)C(=O)O (Ac-NRVYIHP[Phe(4-N(CH2CH2Cl)2)]-OH) | 3.16 nM | – |
| CC[C@H](C)[C@@H](NC(=O)[C@H](Cc1ccc(O)cc1)NC(=O)[C@@H](NC(=O)[C@H](CCCNC(N)N)NC(=O)[C@@H](N)CC(=O)O)C(C)C)[C@@H](C)N[C@@H](Cc1c[nH]cn1)C(=O)N1CCC[C@@H]1C(=O)N[C@@H](Cc1ccc(N(CCCl)CCCl)cc1)C(=O)O | – | 0.3% |
